Legend:
APH(3’)-IIb = molecular target: T1, APH(3’)-IIb (Pseudomonas aeruginosa, UniProt Q9HWR2, M95L); assay: biochemical
T1 sequence (Q9HWR2 1-268 M95L): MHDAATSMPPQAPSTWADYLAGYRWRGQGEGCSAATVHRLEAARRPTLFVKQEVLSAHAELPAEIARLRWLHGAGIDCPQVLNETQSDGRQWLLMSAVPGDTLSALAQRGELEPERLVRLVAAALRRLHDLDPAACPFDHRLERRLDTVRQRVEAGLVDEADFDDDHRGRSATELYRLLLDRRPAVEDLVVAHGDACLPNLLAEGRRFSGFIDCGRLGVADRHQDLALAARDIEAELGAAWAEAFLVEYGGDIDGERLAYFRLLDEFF
Procedure: Plates were placed in a Clariostar plate reader. […] The initial rate constants (kss) were then measured using a linear regression of the absorbance as a function of time using GraFit software (v. 7.0.3, Erithacus software). Inhibition constants were determined by global fittings of the dependences of kss as a function of ATP and inhibitor concentrations, using a competitive inhibition equation and GraFit software. The standard error of the Ki value was determined in the GraFit software based on the global fitting of four experimental series.

P. aeruginosa C0307 = assay: Checkerboard assay of 83 with kanamycin A; assay type: cell-based; conditions: for MIC of kanamycin A: 18 h at 37 °C

Clc1cnc2[nH]ccc2c1-c1ccn[nH]1 [Compound 83]
inhibition at 100 µM (APH(3’)-IIb): 91%
MIC of kanamycin A (P. aeruginosa C0307; 0 µg mL^−1 imipenem, [83] 2 µg mL^−1): 64 µg/mL
MIC of kanamycin A (P. aeruginosa C0307; 0 µg mL^−1 imipenem, [83] 4 µg mL^−1): 64 µg/mL
MIC of kanamycin A (P. aeruginosa C0307; 0 µg mL^−1 imipenem, [83] 8 µg mL^−1): 64 µg/mL
MIC of kanamycin A (P. aeruginosa C0307; 0 µg mL^−1 imipenem, [83] 16 µg mL^−1): 64 µg/mL
MIC of kanamycin A (P. aeruginosa C0307; 0 µg mL^−1 imipenem, [83] 32 µg mL^−1): 64 µg/mL
MIC of kanamycin A (P. aeruginosa C0307; 0 µg mL^−1 imipenem, [83] 64 µg mL^−1): 64 µg/mL
MIC of kanamycin A (P. aeruginosa C0307; 0 µg mL^−1 imipenem, [83] 128 µg mL^−1): 32 µg/mL
MIC of kanamycin A (P. aeruginosa C0307; 0.05 µg mL^−1 imipenem, [83] 2 µg mL^−1): 64 µg/mL
MIC of kanamycin A (P. aeruginosa C0307; 0.05 µg mL^−1 imipenem, [83] 4 µg mL^−1): 64 µg/mL
MIC of kanamycin A (P. aeruginosa C0307; 0.05 µg mL^−1 imipenem, [83] 8 µg mL^−1): 64 µg/mL
MIC of kanamycin A (P. aeruginosa C0307; 0.05 µg mL^−1 imipenem, [83] 16 µg mL^−1): 64 µg/mL
MIC of kanamycin A (P. aeruginosa C0307; 0.05 µg mL^−1 imipenem, [83] 32 µg mL^−1): 64 µg/mL
MIC of kanamycin A (P. aeruginosa C0307; 0.05 µg mL^−1 imipenem, [83] 64 µg mL^−1): 64 µg/mL
MIC of kanamycin A (P. aeruginosa C0307; 0.05 µg mL^−1 imipenem, [83] 128 µg mL^−1): 32 µg/mL
checkerboard well reading (growth) (P. aeruginosa C0307; Supp. Figure 3 A, 83 1 µg.mL-1, kanamycin A 0 µg.mL-1): 1.117
checkerboard well reading (growth) (P. aeruginosa C0307; Supp. Figure 3 A, 83 1 µg.mL-1, kanamycin A 2 µg.mL-1): 1.340
checkerboard well reading (growth) (P. aeruginosa C0307; Supp. Figure 3 A, 83 1 µg.mL-1, kanamycin A 4 µg.mL-1): 1.454
checkerboard well reading (growth) (P. aeruginosa C0307; Supp. Figure 3 A, 83 1 µg.mL-1, kanamycin A 8 µg.mL-1): 1.268
checkerboard well reading (growth) (P. aeruginosa C0307; Supp. Figure 3 A, 83 16 µg.mL-1, kanamycin A 0 µg.mL-1): 1.272
checkerboard well reading (growth) (P. aeruginosa C0307; Supp. Figure 3 A, 83 16 µg.mL-1, kanamycin A 2 µg.mL-1): 1.771
checkerboard well reading (growth) (P. aeruginosa C0307; Supp. Figure 3 A, 83 16 µg.mL-1, kanamycin A 4 µg.mL-1): 1.508
checkerboard well reading (growth) (P. aeruginosa C0307; Supp. Figure 3 A, 83 16 µg.mL-1, kanamycin A 8 µg.mL-1): 1.668
checkerboard well reading (growth) (P. aeruginosa C0307; Supp. Figure 3 A, 83 16 µg.mL-1, kanamycin A 16 µg.mL-1): 1.123
checkerboard well reading (growth) (P. aeruginosa C0307; Supp. Figure 3 A, 83 16 µg.mL-1, kanamycin A 32 µg.mL-1): 1.123
checkerboard well reading (growth) (P. aeruginosa C0307; Supp. Figure 3 A, 83 16 µg.mL-1, kanamycin A 64 µg.mL-1): 0.184
checkerboard well reading (growth) (P. aeruginosa C0307; Supp. Figure 3 A, 83 16 µg.mL-1, kanamycin A 128 µg.mL-1): 0.041
checkerboard well reading (growth) (P. aeruginosa C0307; Supp. Figure 3 A, 83 32 µg.mL-1, kanamycin A 0 µg.mL-1): 1.376
checkerboard well reading (growth) (P. aeruginosa C0307; Supp. Figure 3 A, 83 32 µg.mL-1, kanamycin A 2 µg.mL-1): 1.667
checkerboard well reading (growth) (P. aeruginosa C0307; Supp. Figure 3 A, 83 32 µg.mL-1, kanamycin A 4 µg.mL-1): 1.435
checkerboard well reading (growth) (P. aeruginosa C0307; Supp. Figure 3 A, 83 32 µg.mL-1, kanamycin A 8 µg.mL-1): 1.524
checkerboard well reading (growth) (P. aeruginosa C0307; Supp. Figure 3 A, 83 32 µg.mL-1, kanamycin A 16 µg.mL-1): 1.359
checkerboard well reading (growth) (P. aeruginosa C0307; Supp. Figure 3 A, 83 32 µg.mL-1, kanamycin A 32 µg.mL-1): 1.130
checkerboard well reading (growth) (P. aeruginosa C0307; Supp. Figure 3 A, 83 32 µg.mL-1, kanamycin A 64 µg.mL-1): 0.118
checkerboard well reading (growth) (P. aeruginosa C0307; Supp. Figure 3 A, 83 32 µg.mL-1, kanamycin A 128 µg.mL-1): 0.042
checkerboard well reading (growth) (P. aeruginosa C0307; Supp. Figure 3 A, 83 64 µg.mL-1, kanamycin A 0 µg.mL-1): 1.213
checkerboard well reading (growth) (P. aeruginosa C0307; Supp. Figure 3 A, 83 64 µg.mL-1, kanamycin A 2 µg.mL-1): 1.320
checkerboard well reading (growth) (P. aeruginosa C0307; Supp. Figure 3 A, 83 64 µg.mL-1, kanamycin A 4 µg.mL-1): 1.451
checkerboard well reading (growth) (P. aeruginosa C0307; Supp. Figure 3 A, 83 64 µg.mL-1, kanamycin A 8 µg.mL-1): 1.433
checkerboard well reading (growth) (P. aeruginosa C0307; Supp. Figure 3 A, 83 64 µg.mL-1, kanamycin A 16 µg.mL-1): 1.312
checkerboard well reading (growth) (P. aeruginosa C0307; Supp. Figure 3 A, 83 64 µg.mL-1, kanamycin A 32 µg.mL-1): 1.055
checkerboard well reading (growth) (P. aeruginosa C0307; Supp. Figure 3 A, 83 64 µg.mL-1, kanamycin A 64 µg.mL-1): 0.042
checkerboard well reading (growth) (P. aeruginosa C0307; Supp. Figure 3 A, 83 64 µg.mL-1, kanamycin A 128 µg.mL-1): 0.044
checkerboard well reading (growth) (P. aeruginosa C0307; Supp. Figure 3 A, 83 128 µg.mL-1, kanamycin A 0 µg.mL-1): 1.324
checkerboard well reading (growth) (P. aeruginosa C0307; Supp. Figure 3 A, 83 128 µg.mL-1, kanamycin A 2 µg.mL-1): 1.439
checkerboard well reading (growth) (P. aeruginosa C0307; Supp. Figure 3 A, 83 128 µg.mL-1, kanamycin A 4 µg.mL-1): 1.308
checkerboard well reading (growth) (P. aeruginosa C0307; Supp. Figure 3 A, 83 128 µg.mL-1, kanamycin A 8 µg.mL-1): 1.307
checkerboard well reading (growth) (P. aeruginosa C0307; Supp. Figure 3 A, 83 128 µg.mL-1, kanamycin A 16 µg.mL-1): 1.218
checkerboard well reading (growth) (P. aeruginosa C0307; Supp. Figure 3 A, 83 128 µg.mL-1, kanamycin A 32 µg.mL-1): 0.227
checkerboard well reading (growth) (P. aeruginosa C0307; Supp. Figure 3 A, 83 128 µg.mL-1, kanamycin A 64 µg.mL-1): 0.039
checkerboard well reading (growth) (P. aeruginosa C0307; Supp. Figure 3 A, 83 128 µg.mL-1, kanamycin A 128 µg.mL-1): 0.039
checkerboard well reading (growth) (P. aeruginosa C0307; Supp. Figure 3 B, 83 1 µg.mL-1, kanamycin A 0 µg.mL-1): 1.239
checkerboard well reading (growth) (P. aeruginosa C0307; Supp. Figure 3 B, 83 1 µg.mL-1, kanamycin A 2 µg.mL-1): 1.239
checkerboard well reading (growth) (P. aeruginosa C0307; Supp. Figure 3 B, 83 1 µg.mL-1, kanamycin A 4 µg.mL-1): 1.159
checkerboard well reading (growth) (P. aeruginosa C0307; Supp. Figure 3 B, 83 1 µg.mL-1, kanamycin A 8 µg.mL-1): 1.192
checkerboard well reading (growth) (P. aeruginosa C0307; Supp. Figure 3 B, 83 1 µg.mL-1, kanamycin A 16 µg.mL-1): 1.219
checkerboard well reading (growth) (P. aeruginosa C0307; Supp. Figure 3 B, 83 1 µg.mL-1, kanamycin A 32 µg.mL-1): 1.181
checkerboard well reading (growth) (P. aeruginosa C0307; Supp. Figure 3 B, 83 1 µg.mL-1, kanamycin A 64 µg.mL-1): 0.113

— paper PMC12749166, “Fragment-based drug design of a bacterial kinase inhibitor capable of increasing the antibiotic sensitivity of clinical isolates” (Communications Chemistry, 2025)
